Assay results as given in US20260115190A1, “DISPERSIONS OF ETRUMADENANT” (Arcus Biosciences, Inc., priority 2022, published 2026).

How the values were obtained:
A2BR = biological target: T1, A2BR (Homo sapiens, UniProt P29275); conditions: antagonist; has been reported; cited from earlier work
T1 sequence (P29275 1-332): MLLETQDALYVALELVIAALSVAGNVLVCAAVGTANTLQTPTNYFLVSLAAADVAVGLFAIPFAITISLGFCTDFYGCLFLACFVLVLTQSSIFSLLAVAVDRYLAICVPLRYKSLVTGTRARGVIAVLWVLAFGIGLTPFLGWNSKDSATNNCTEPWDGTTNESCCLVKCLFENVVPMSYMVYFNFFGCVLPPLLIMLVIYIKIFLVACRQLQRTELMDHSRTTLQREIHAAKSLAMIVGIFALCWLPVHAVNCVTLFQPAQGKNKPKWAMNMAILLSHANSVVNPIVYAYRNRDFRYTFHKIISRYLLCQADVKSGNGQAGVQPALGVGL

[1] = tested on: CYP3A4, CYP2C8, and uridine 5′-diphospho glucuronosyltransferase (UGT) enzyme isoforms; assay: In vitro metabolism of etrumadenant; assay type: in vitro ADME; conditions: in vitro data
A2AR = A2AR (Homo sapiens, UniProt P29274); conditions: antagonist; has been reported; cited from earlier work
Sequence of A2AR (P29274 whole entry): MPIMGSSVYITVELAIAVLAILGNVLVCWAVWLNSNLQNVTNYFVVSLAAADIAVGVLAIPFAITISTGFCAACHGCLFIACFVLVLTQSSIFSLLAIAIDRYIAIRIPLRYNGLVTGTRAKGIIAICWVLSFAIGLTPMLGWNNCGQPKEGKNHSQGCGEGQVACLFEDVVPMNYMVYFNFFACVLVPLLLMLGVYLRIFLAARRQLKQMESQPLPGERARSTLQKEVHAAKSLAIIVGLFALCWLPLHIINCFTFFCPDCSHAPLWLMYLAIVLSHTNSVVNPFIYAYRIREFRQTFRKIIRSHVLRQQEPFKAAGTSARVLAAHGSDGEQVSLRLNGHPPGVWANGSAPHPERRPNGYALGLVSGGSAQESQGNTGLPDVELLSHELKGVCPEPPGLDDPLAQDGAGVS

[2] = Thermal analysis by MDSC (Tg); assay type: physicochemical; conditions: amorphous etrumadenant made by melt quenching; one experiment
Description: Thermal Properties. Thermal properties were measured using a TA Instruments Discovery DSC2500 DSC equipped with a TA instruments Refrigerated Cooling System 90 operating in modulated mode. Briefly, bulk drug substance was analyzed by standard DSC with a heating rate of 10° C. per minute ramping up to 220° C. Amorphous etrumadenant was created from the starting drug substance by rapidly melt quenching using liquid N2 and then analyzed by modulated DSC (MDSC). Events monitored include the glass transition temperature (Tg), cold crystallization (Tc), defined as a crystallization event at a temperature lower than the melt temperature, and melting temperature (Tm). In one experiment, the thermal properties were as follows: Tg=69° C.; Tc=no crystallization up to 220° C.; Tm=192° C. Minor lot-to-lot variation may occur.

[3] = Non-sink dissolution (0.1N HCl to FaSSIF gastric transfer); assay type: physicochemical
Description: In vitro drug dissolution performance for each dispersion was evaluated under non-sink conditions in a two-stage process that simulates pH and bile salt concentrations for both gastric and intestinal exposure. In vitro dissolution testing under non-sink conditions allows for a direct evaluation of each dispersion's ability to generate and maintain supersaturation above crystalline etrumadenant's solubility; was used as a predictive surrogate for ensuring product quality and in vivo performance; and is an effective test to discriminate between formulations at a given stability condition.
To begin dissolution (t=0), a sample of SDI powder was briefly suspended in 4 mL of FaSSIF (2 mg/mL SIF in 100 mM PBS) and then transferred into 50 mL SGF (0.1 N HCl (aq)) pre-heated to 37° C. in a USP Type 2 mini-vessel (100 mL total vessel volume) with stirring (paddles) at 100 rpm. At 30 minutes, a gastric transfer step was performed wherein the volume in each dissolution vessel was approximately doubled using 2×FaSSIF (4.48 mg/mL SIF powder (BioRelevant)), resulting in a final pH of 6.8 in a total volume of 100 mL. Samples taken before and after this transfer at indicated times were evaluated for drug concentration by HPLC. The drug concentrations measured in this test are a composite of SDI free drug, drug in micelles, and drug suspended in solution. A summary of the dissolution and HPLC parameters are shown in Table 6 and Table 7, respectively.

For `Cc1c(C#N)cccc1-c1cc(-c2cn(Cc3cccc(C(C)(C)O)n3)nn2)nc(N)n1` [Etrumadenant, 3-[2-amino-6-(1-{[6-(2-hydroxypropan-2-yl)pyridine-2-yl]methyl}-1H-1,2,3-triazol-4-yl)pyrimidin-4-yl]-2-methylbenzonitrile], the “potency on A2BR” value (A2BR) is given as “less than 10 nM”, the “etrumadenant metabolism mediated by” value [1] is given as “mediated by CYP3A4, CYP2C8, and uridine 5′-diphospho glucuronosyltransferase (UGT) enzyme isoforms” and the “potency on A2AR” value (A2AR) is given as “less than 10 nM”. For the same molecule, the “glass transition temperature (Tg)” value [2] was 69 °C, the “AUC35-210 FaSSIF” value ([3]; Example 4, after transfer to FaSSIF from 35 to 210 minutes) was 8000 min*μgA/mL and the C210 ([3]; Example 4, drug concentration at 210 minutes (180 minutes after transfer to FaSSIF)) was 37.9 μgA/mL. The “Cmax FaSSIF” value ([3]; Example 4, maximum drug concentration after transfer to FaSSIF) was 155.0 μgA/mL, the “AUC35-210 FaSSIF” value ([3]; Example 5, t = 0) was 3800 min*μgA/mL and the C210 ([3]; Example 5, t = 0) was 15.5 μgA/mL. The “Total Drug CmaxFaSSIF” value ([3]; Example 5, t = 0) was 129.9 μgA/mL and the C210 ([3]; Example 5, t = 0, listed as AB928 starting drug substance) was 15.6 μgA/mL.
